Data published in US20210244704A1, “Cabazitaxel in mCRPC Patients Previously Treated with Docetaxel and Who Failed a Prior androgen signaling targeted inhibitor Agent” (SANOFI MATURE IP, priority 2019, published 2021).
Marks after values point to notes of the source that are not given here.

What was measured:
pain in mCRPC patients = experiment: Same clinical study: pain response and pain progression (BPI-SF); assay type: in vivo, human; conditions: for Pain progression, HR: cabazitaxel vs abiraterone or enzalutamide
Description: Pain response (PR): was measured using the Brief Pain Inventory-Short Form for pain intensity score and defined as a decrease by >30% from baseline in the Brief Pain Inventory-Short Form pain intensity item scores observed at two consecutive evaluations weeks apart without an increase in analgesic usage score.
(§1) Pain response was defined as a decrease≥30% from baseline in BPI-SF pain intensity score with no increased analgesic use. HRQL was assessed using the Functional Assessment of Cancer Therapy-Prostate (FACT-P) questionnaire. Pain intensity was defined using item 3 of the validated Brief Pain Inventory-Short Form (BPI-SF), which rates pain at its worst in the last 24 hours on a scale of 0 (no pain) to 10 (worst imaginable pain). Analgesic consumption was reported by local investigators and coded by the World Health Organization's analgesic ladder (0=no analgesic; 1=non-opioid analgesics; 2=opioid analgesics for moderate pain; 3=opioids for severe pain). […] A clinically meaningful improvement or deterioration of total FACT-P score was defined as a difference of ±10 points from baseline. Clinically meaningful changes in HRQL and pain response were confirmed at two consecutive evaluations≥3 weeks apart during the on-treatment period. Survival curves were generated by Kaplan-Meier estimates.
Efficacy analysis used all randomized patients. Stratified log-rank tests were used to analyze time-to-event data. The primary analysis compared radiographic progression-free survival between the two treatment groups using a stratified log-rank test. Survival curves were generated using Kaplan-Meier estimates. Hazard ratios and associated 95% confidence intervals [CI] were estimated using a stratified Cox proportional hazards model. Stratified Cochran-Mantel-Haenszel chi-square tests were used to analyze categorical data. Descriptive statistics were used to summarize patient characteristics. The safety population (randomized patients who received at least one dose of study treatment) was used for all safety analyses.

[1] = tested on: patients with mCRPC who progressed during or after docetaxel; conditions: every 3 weeks with prednisone 10 mg daily; cabazitaxel 25 mg/m^2, mitoxantrone 12 mg/m^2; cited from earlier work
HRQL of mCRPC patients = experiment: Same clinical study: health-related quality of life, FACT-P questionnaire; assay type: in vivo, human
Description: as §1
Time to deterioration was defined on two consecutive evaluations, ≥3 weeks apart as follows: • decrease of ≥10 points from baseline for FACT-P total score • decrease of ≥3 points from baseline for physical, social, emotional and functional well-being • decrease of ≥2 points from baseline for the pain PCS subscale • decrease of ≥9 points from baseline for FACT-G total and FACT-P TOI subscales
FACT-P, a validated 39-item questionnaire evaluated 5 wellbeing domains: physical (PWB, 0-28), social and family (SWB, 0-28), emotional (EWB, 0-24), functional (FWB, 0-28), and prostate specific (PCS, 0-48).
Total FACT-P score (PWB+SWB+EWB+FWB+PCS; 0-156), total FACT-G score (PWB+SWB+EWB+FWB; 0-108), FACT-P trial outcome index (PWB+FWB+PCS; 0-104), and PCS-Pain were calculated. The FACT-P overall score ranges from 0 to 156, higher values indicating a higher HRQL
To control for type I error due to multiple comparisons, a hierarchical testing procedure was applied for the primary and key secondary end points. […] Further tests were stopped once a comparison was found not statistically significant at two-sided alpha level of 0.05. Descriptive statistics for FACT-P and EQ-5D-5L scores were provided for all cycles for which the number of evaluable patients reached ≥20% of the PRO population. For qualitative parameters, proportions of patients with deterioration, no change, and improvement were provided.
The comparison of changes from baseline on PROs was analyzed using a mixed linear repeated measures model where treatment is a fixed effect variable and subject is a random effect variable. Stratification variables were included in the model as covariates as well as the interaction treatment visit. The least square means by treatment group with the corresponding 95% CI obtained from the mixed model were presented graphically. No adjustments for multiplicity were made.
Compliance with the planned assessment schedule was calculated at baseline and for each treatment cycle as the proportion of patients still receiving study treatment at this time point. No formal imputation for missing data was carried out and reasons for missing data were not centrally recorded. FACT-P total score was evaluable when >80% of questions were answered. For individual FACT-P subscales, a score was evaluable when >50% of the questions in the subscale domain were answered. If <50% of the questions were missing in any FACT-P subscale, the subscale score could be imputed by prorated subscale scores using the following formula: Prorated subscale score=[Sum of question scores]×[N of questions in subscale][…][N of questions answered].

[2] = human, in vivo, listed as cabazitaxel
[3] = cabazitaxel vs abiraterone or enzalutamide
[4] = cabazitaxel vs abiraterone or enzalutamide, all cycles
[5] = cabazitaxel vs abiraterone or enzalutamide, end of treatment visit

## CO[C@H]1C(=O)[C@]2(C)[C@@H](OC)C[C@H]3OC[C@@]3(OC(C)=O)[C@H]2[C@H](OC(=O)c2ccccc2)[C@]2(O)C[C@H](OC(=O)[C@H](O)[C@@H](NC(=O)OC(C)(C)C)c3ccccc3)C(C)=C1C2(C)C [Cabazitaxel, 4α-acetoxy-2α-benzoyloxy-5β,20-epoxy-1p-hydroxy-7β,10β-dimethoxy-9-oxo-11-taxen-13α-yl (2R,3S)-3-tert-butoxycarbonylamino-2-hydroxy-3-phenylpropionate]
Pain in mCRPC patients; 3 months
  Pain (BPI-SF), Kaplan-Meier probability of no deterioration at 3 months: 87.8
Pain in mCRPC patients; 12 months
  Probability of not having pain progression after 12 months: 66.2%
Pain in mCRPC patients
  Pain progression, HR: 0.55*
Pain in mCRPC patients; listed as cabazitaxel
  Pain progression, HR: 0.55
Pain in mCRPC patients; evaluable 111 and 109
  Patients with a confirmed pain response: 50 n
Pain in mCRPC patients; evaluable patients, listed as cabazitaxel
  Patients with a confirmed pain response: 45.0%
Pain in mCRPC patients; human, in vivo
  Median time to pain progression (BPI-SF): NE (NE-NE)
  Pain (BPI-SF) deterioration events: 22.5%
  Pain (BPI-SF) deterioration events, n/nT: 25/111
Pain in mCRPC patients; [2]
  Median time to pain progression (BPI-SF): not reached
[1]
  Median overall survival, TROPIC trial: 15.1 months
HRQL of mCRPC patients
  Deterioration in FACT-P from baseline: 22.2%
HRQL of mCRPC patients; 3 months
  Emotional well-being, Kaplan-Meier probability of no deterioration at 3 months: 91.1
  FACT-G total, Kaplan-Meier probability of no deterioration at 3 months: 82.3
  FACT-P total, Kaplan-Meier probability of no deterioration at 3 months: 86.2
  Functional well-being, Kaplan-Meier probability of no deterioration at 3 months: 73.7
  Pain-related subscale, Kaplan-Meier probability of no deterioration at 3 months: 81.6
  Physical well-being, Kaplan-Meier probability of no deterioration at 3 months: 76.0
  Prostate-specific concerns, Kaplan-Meier probability of no deterioration at 3 months: 83.6
  Social or family well-being, Kaplan-Meier probability of no deterioration at 3 months: 78.7
  Trial outcome index, Kaplan-Meier probability of no deterioration at 3 months: 86.1
HRQL of mCRPC patients; Table 6
  FACT-P total, deterioration events: 29.6%
HRQL of mCRPC patients; [3]
  Emotional well-being, time to deterioration HR: 0.46**
  FACT-G total, time to deterioration HR: 0.71
  FACT-P total, time to deterioration HR: 0.72
  Functional well-being, time to deterioration HR: 0.81
  Pain-related subscale, time to deterioration HR: 0.74
  Physical well-being, time to deterioration HR: 0.82
  Prostate-specific concerns, time to deterioration HR: 0.68
  Social or family well-being, time to deterioration HR: 1.03
  Trial outcome index, time to deterioration HR: 0.65
HRQL of mCRPC patients; [4]
  Pain-related subscale score change from baseline, least squares mean difference: +1.12 to +2.26
  Social or family well-being change from baseline, mean difference: −0.37 to −2.25
HRQL of mCRPC patients; [5]
  FACT-P total score change from baseline, mean difference: +4.58
  Pain-related subscale score change from baseline, mean difference: +0.62
  Social or family well-being change from baseline, mean difference: −0.94
HRQL of mCRPC patients; cabazitaxel vs abiraterone or enzalutamide, until Cycle 5
  FACT-P total score change from baseline, least squares mean difference: +2.67 to +5.21
HRQL of mCRPC patients; human, in vivo
  Emotional well-being, deterioration events: 16.7%
  Emotional well-being, deterioration events n/nT: 18/108
  Emotional well-being, median time to deterioration: NE (NE-NE)
  FACT-G total, deterioration events: 27.8%
  FACT-G total, deterioration events n/nT: 30/108
  FACT-G total, median time to deterioration: 14.8 (8.8-NE) months
  FACT-P total, deterioration events n/nT: 32/108
  FACT-P total, median time to deterioration: 14.8 (6.3-NE) months
  Functional well-being, deterioration events: 36.1%
  Functional well-being, deterioration events n/nT: 39/108
  Functional well-being, median time to deterioration: NE (5.9-NE)
  Improvement in total FACT-P score from baseline: 25.0%
  Pain-related subscale, deterioration events: 33.3%
  Pain-related subscale, deterioration events n/nT: 36/108
  Pain-related subscale, median time to deterioration: 10.4 (8.5-NE) months
  Physical well-being, deterioration events: 36.1%
  Physical well-being, deterioration events n/nT: 39/108
  Physical well-being, median time to deterioration: 14.8 (4.9-NE) months
  Prostate-specific concerns, deterioration events: 32.4%
  Prostate-specific concerns, deterioration events n/nT: 35/108
  Prostate-specific concerns, median time to deterioration: 14.8 (9.8-NE) months
  Social or family well-being, deterioration events: 32.4%
  Social or family well-being, deterioration events n/nT: 35/108
  Social or family well-being, median time to deterioration: 14.8 (7.9-14.8) months
  Trial outcome index, deterioration events: 26.9%
  Trial outcome index, deterioration events n/nT: 29/108
  Trial outcome index, median time to deterioration: 14.8 (8.5-NE) months
HRQL of mCRPC patients; [2]
  FACT-P total, median time to deterioration: 14.8 months
HRQL of mCRPC patients; ±10 points, confirmed
  Improvement in total FACT-P score from baseline: 27 patients
